# Data reported in patent publication US9745299B2, “Substituted tricyclic benzimidazoles as kinase inhibitors” (SELVITA SA, priority 2012, dated 2017).
# Counter-ions that a name gives are not always drawn.
# Key:
# CDK8/CyclinC = target: T1, CDK8/CyclinC (Homo sapiens, UniProt P49336); assay: ADP-Glo Kinase Assay, CDK8/CyclinC; format: biochemical; settings: read-out: % inhibition at 1 μM CDK8/CyclinC; further: ATP at apparent Km (53 µM)
# T1 construct: purchased ProQinase, Freiburg, Germany
# Protocol: (§1) Testing of the compounds described in this invention was carried out using the ADP-Glo™ Kinase Assay from Promega Corporation (Madison, Wis., USA).
# (§2) The ADP-Glo™ Kinase Assay is a luminescent ADP detection assay to measure kinase activity by quantifying the amount of ADP produced during a kinase reaction. The kinase assay is performed in kinase assay buffer (5 mM MOPS, pH 7.5, 5 mM MgCl2, 0.4 mM EDTA, 1.5 mM DTT). Test samples initially dissolved in DMSO at 10 mM were diluted with the assay buffer to 1000 nM. A 30 μL volume/well of a mixture of substrates containing ATP (final ATP concentration in each kinase assay was equal to its apparent ATP Km).
# (§3) The assay was performed in two steps: first, after the kinase reaction, an equal volume of ADP-Glo™ Reagent was added to terminate the kinase reaction and deplete the remaining ATP. Second, the Kinase Detection Reagent was added to simultaneously convert ADP to ATP and allowed the newly synthesized ATP to be measured using a luciferase/luciferin reaction. The luminescent signal generated was proportional to the ADP concentration produced and was correlated with kinase activity.
# CDK9/CyclinT = target: T2, CDK9/CyclinT (Homo sapiens, UniProt P50750); assay: ADP-Glo Kinase Assay, CDK9/CyclinT; format: biochemical; settings: read-out: % inhibition at 1 μM CDK9/CyclinT; further: ATP at apparent Km (26 µM)
# T2 construct: purchased Proqinase, Freiburg, Germany
# T2 sequence (P50750 whole entry): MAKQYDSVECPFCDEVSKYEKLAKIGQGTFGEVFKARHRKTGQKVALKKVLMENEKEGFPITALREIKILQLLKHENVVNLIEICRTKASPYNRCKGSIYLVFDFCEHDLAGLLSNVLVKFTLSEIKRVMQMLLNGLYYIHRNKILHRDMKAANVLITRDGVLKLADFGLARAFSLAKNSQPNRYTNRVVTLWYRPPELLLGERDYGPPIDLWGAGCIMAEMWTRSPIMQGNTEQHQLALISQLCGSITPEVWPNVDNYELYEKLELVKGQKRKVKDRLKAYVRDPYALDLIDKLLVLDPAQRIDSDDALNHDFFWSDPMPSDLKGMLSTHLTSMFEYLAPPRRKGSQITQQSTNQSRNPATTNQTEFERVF
# T2 sequence (O60563 whole entry partner): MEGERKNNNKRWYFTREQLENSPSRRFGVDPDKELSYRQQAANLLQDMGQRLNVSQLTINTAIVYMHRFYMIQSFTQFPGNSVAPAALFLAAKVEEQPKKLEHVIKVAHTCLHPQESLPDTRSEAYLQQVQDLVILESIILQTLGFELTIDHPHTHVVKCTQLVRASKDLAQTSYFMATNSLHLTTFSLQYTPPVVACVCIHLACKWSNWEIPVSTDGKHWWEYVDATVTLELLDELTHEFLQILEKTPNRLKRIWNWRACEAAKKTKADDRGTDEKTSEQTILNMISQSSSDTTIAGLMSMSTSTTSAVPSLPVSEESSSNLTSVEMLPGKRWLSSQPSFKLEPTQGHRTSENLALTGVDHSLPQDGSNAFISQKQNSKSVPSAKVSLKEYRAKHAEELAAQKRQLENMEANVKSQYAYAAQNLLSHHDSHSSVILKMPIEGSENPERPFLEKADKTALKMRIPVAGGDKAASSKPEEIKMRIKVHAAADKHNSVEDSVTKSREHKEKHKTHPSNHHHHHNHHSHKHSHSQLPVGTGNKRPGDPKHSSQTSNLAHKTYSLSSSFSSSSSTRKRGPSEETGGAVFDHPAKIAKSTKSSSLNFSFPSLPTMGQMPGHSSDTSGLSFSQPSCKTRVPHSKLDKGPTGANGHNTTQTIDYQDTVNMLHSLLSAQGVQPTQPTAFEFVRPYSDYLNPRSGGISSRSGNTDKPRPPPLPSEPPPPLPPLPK
# Protocol: as §1, §2, §3
# CDK1/CyclinB = target: T3, CDK1/CyclinB (Homo sapiens, UniProt P06493); assay: ADP-Glo Kinase Assay, CDK1/CyclinB; format: biochemical; settings: read-out: % inhibition at 1 μM CDK1/CyclinB; further: ATP at apparent Km (20 µM)
# T3 construct: purchased Millipore, Billerica, Mass., USA
# T3 sequence (P06493 whole entry): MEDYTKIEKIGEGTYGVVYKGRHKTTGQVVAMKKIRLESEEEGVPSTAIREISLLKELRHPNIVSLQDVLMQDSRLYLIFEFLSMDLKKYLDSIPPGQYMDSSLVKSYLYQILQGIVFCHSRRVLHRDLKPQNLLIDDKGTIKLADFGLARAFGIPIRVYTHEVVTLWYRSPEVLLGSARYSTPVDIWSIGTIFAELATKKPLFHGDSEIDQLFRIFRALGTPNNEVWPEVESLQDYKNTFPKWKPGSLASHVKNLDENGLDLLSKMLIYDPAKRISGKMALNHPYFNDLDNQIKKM
# T3 sequence (P14635 whole entry partner): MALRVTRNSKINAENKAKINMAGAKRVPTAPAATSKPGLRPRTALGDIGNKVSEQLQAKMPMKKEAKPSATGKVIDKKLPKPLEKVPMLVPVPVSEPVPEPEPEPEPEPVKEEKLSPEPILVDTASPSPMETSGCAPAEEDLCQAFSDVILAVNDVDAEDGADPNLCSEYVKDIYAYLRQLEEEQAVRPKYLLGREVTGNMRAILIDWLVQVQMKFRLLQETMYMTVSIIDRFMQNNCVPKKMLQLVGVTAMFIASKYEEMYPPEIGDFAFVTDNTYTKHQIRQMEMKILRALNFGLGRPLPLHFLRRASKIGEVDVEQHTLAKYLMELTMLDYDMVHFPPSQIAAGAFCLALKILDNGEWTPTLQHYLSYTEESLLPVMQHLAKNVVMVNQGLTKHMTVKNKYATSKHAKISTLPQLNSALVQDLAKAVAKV
# Protocol: Testing of the compounds described in this invention was carried out using the ADP-Glo™ Kinase Assay from Promega Corporation (Madison, Wis., USA). […] The ADP-Glo™ Kinase Assay is a luminescent ADP detection assay to measure kinase activity by quantifying the amount of ADP produced during a kinase reaction. The kinase assay is performed in kinase assay buffer (5 mM MOPS, pH 7.5, 5 mM MgCl2, 0.4 mM EDTA, 1.5 mM DTT). Test samples initially dissolved in DMSO at 10 mM were diluted with the assay buffer to 1000 nM. A 30 μL volume/well of a mixture of substrates containing ATP (final ATP concentration in each kinase assay was equal to its apparent ATP Km). […] The assay was performed in two steps: first, after the kinase reaction, an equal volume of ADP-Glo™ Reagent was added to terminate the kinase reaction and deplete the remaining ATP. Second, the Kinase Detection Reagent was added to simultaneously convert ADP to ATP and allowed the newly synthesized ATP to be measured using a luciferase/luciferin reaction. The luminescent signal generated was proportional to the ADP concentration produced and was correlated with kinase activity.
# CDK2/CyclinE = target: T4, CDK2/CyclinE (Homo sapiens, UniProt P24941); assay: ADP-Glo Kinase Assay, CDK2/CyclinE; format: biochemical; settings: read-out: % inhibition at 1 μM CDK2/CyclinE
# T4 construct: purchased Millipore, Billerica, Mass., USA
# Protocol: as §1, §2, §3
# CDK5/p25 = target: T5, CDK5/p25 (Homo sapiens, UniProt Q00535); assay: ADP-Glo Kinase Assay, CDK5/p25; format: biochemical; settings: read-out: % inhibition at 1 μM CDK5/p25; further: ATP at apparent Km (12 µM)
# T5 construct: purchased Millipore, Billerica, Mass., USA
# T5 sequence (Q00535 whole entry): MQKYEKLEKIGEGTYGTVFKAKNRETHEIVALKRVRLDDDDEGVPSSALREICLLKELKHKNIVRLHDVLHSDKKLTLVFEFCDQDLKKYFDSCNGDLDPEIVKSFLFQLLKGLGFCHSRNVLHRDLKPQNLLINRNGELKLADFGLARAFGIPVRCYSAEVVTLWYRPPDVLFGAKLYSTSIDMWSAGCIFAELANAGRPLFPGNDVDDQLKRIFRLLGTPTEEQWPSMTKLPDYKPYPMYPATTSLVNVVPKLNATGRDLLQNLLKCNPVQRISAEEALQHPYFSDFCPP
# T5 sequence (Q15078 99-307 partner limits assumed): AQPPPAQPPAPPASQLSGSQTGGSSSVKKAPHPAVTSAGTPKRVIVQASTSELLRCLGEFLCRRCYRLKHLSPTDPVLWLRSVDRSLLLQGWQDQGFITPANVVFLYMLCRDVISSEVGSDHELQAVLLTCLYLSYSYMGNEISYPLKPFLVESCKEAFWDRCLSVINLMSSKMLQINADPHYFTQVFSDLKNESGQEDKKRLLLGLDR
# Protocol: as §1, §2, §3
# CDK7/CyclinH/MAT1 = target: T6, CDK7/CyclinH/MAT1 (Homo sapiens, UniProt P50613); assay: ADP-Glo Kinase Assay, CDK7/CyclinH/MAT1; format: biochemical; settings: read-out: % inhibition at 1 μM CDK7/CyclinH/MAT1
# T6 construct: purchased Millipore, Billerica, Mass., USA
# T6 sequence (P50613 whole entry): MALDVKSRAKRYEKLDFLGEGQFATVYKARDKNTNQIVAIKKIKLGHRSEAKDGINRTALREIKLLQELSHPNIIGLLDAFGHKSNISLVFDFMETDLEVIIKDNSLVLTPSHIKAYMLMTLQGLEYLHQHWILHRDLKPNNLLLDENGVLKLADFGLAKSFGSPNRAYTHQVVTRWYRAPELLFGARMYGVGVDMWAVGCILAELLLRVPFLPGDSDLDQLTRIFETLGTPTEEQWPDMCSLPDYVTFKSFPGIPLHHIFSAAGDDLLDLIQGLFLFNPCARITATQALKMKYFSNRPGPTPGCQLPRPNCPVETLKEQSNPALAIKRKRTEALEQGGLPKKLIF
# T6 sequence (P51946 whole entry partner): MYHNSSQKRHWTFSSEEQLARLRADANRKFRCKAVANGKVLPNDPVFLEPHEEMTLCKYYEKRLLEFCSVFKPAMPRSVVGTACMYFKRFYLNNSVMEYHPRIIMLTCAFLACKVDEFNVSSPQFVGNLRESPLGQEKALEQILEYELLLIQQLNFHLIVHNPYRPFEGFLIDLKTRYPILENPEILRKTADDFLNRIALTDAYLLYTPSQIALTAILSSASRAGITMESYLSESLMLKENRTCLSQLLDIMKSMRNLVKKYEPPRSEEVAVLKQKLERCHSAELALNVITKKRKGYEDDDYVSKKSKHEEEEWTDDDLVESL
# T6 sequence (P51948 whole entry partner): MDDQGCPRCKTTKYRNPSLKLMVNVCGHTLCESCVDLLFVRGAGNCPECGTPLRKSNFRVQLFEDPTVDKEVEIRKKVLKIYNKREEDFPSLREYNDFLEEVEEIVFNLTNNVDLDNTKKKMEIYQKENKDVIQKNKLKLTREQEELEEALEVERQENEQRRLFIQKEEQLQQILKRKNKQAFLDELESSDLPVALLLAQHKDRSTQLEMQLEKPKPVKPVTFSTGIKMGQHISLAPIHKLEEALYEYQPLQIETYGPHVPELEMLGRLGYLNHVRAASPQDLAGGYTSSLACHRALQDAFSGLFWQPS
# Protocol: as §1, §2, §3
# HCT116 cells = assay: MTS viability assay, HCT116; format: cell-based; settings: Homo sapiens, HCT-116, HCT116, 72 hour incubation, read-out: IC50 [μM] HCT116 ED50
# Excerpt: (§4) The viability of CDK8 expressing cells can be evaluated using a tetrazolium salt reduction cell-based assay. In viable cells this colorimetric assay can measure mitochondrial reduction of a tetrazolium component (MTS) into an […] formazan product. For MTS viability assay, human colon cancer cell lines were used (SW480 and HCT116 cell lines), containing elevated levels of CDK8 protein and highly dependent on its expression for proliferation [see, Firenstein et al. Nature 455 (25):547-551, (2008)]. These cell lines were used to determine the activity of the compounds provided herein to inhibit CDK8 in intact cells. Human tumor cell lines were obtained from ATCC (Rockville Md. USA). In each case, and by methods known to those practiced in the art of cell culture, vaiability was measured after 72 hour incubation with the compounds provided herein using a standard MTS protocol (CellTiter 96® AQueous Non-Radioactive Cell Proliferation Assay).
# (§5) Briefly, cells were plated at 10,000-20,000 cells per well in DMEM medium supplemented with 10% fetal bovine serum. The compound plate was set up by aliquoting into column 1 of a 96-well plate, the negative control (DMSO), aliquoting into column 12 the positive control, and titrating the test compound in serial dilutions into columns 2-11. An aliquot from each well of the compound plate was transferred to the plated cells and then incubated at 37° C. in 5% CO2. 20 μL of MTS tetrazolium was added to each well of optical plate and the cells were incubated at 37° C. in 5% CO2 for 2 hours. The absorbance was measured at 490 nm using a microplate reader.
# SW480 cells = assay: MTS viability assay, SW480; format: cell-based; settings: Homo sapiens, SW480, 72 hour incubation, read-out: IC50 [μM] SW-480 ED50
# Excerpt: as §4, §5
# T1 sequence (P49336 whole entry): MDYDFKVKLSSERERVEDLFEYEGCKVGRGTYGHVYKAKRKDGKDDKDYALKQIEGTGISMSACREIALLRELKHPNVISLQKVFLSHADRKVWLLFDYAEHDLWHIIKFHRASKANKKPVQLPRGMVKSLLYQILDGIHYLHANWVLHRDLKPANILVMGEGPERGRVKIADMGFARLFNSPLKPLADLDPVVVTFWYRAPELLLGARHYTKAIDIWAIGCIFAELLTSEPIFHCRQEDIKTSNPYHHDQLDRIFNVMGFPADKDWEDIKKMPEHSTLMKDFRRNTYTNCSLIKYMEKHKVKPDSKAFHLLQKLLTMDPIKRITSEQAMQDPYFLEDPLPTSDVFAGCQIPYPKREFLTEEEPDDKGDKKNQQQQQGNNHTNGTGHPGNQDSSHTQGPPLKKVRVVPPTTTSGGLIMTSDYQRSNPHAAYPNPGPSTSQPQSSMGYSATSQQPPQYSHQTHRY
# T1 sequence (P24863 whole entry partner): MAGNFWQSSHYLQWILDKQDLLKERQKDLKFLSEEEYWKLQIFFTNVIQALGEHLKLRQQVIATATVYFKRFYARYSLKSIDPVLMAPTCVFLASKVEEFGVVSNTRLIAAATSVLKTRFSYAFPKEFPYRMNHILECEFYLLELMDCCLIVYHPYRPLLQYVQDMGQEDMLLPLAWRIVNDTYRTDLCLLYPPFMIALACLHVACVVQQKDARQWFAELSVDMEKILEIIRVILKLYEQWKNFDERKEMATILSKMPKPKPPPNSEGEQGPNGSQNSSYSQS
SMILES,inhibition at 1 µM (CDK8/CyclinC),inhibition at 1 µM (CDK9/CyclinT),inhibition at 1 µM (CDK1/CyclinB),inhibition at 1 µM (CDK2/CyclinE),inhibition at 1 µM (CDK5/p25),inhibition at 1 µM (CDK7/CyclinH/MAT1),IC50 (HCT116 cells),IC50 (SW480 cells)
NCCCNc1nc2c(Br)c(Br)c(Br)c3c2n1CCC3 [Example 1C],52%,9%,0%,8%,,,,
NCCNc1nc2c(I)c(Br)c(Br)c3c2n1CCC3 [Example 1W],100%,13%,7%,0%,2%,0%,,
O=[N+]([O-])c1c(Br)c(Br)c2c3c1nc(N1CCNCC1)n3CCC2 [Example 1X],71%,9%,15%,8%,27%,0%,6.7 µM,1.4 µM
"OC1CCN(c2nc3c(Br)c(Br)c(Br)c4c3n2CCC4)CC1 [Example 3A, 1-(7,8,9-tribromo-5,6-dihydro-4H-imidazo[4,5,1-ij]quinolin-2-yl)piperidin-4-ol]",61%,1%,0%,4%,0%,3%,,
Brc1c(Br)c2c3c(nc(N4CCCCC4)n3CCC2)c1Br [Example 3D],87%,20%,2%,0%,0%,11%,,
CCN(CC)c1nc2c(Br)c(Br)c(Br)c3c2n1CCC3 [Example 3I],85%,14%,0%,0%,14%,0%,6.8 µM,5 µM
Nc1nc2c(Br)c(Br)c(Br)c3c2n1CCC3 [Example 3J],58%,34%,0%,1%,53%,0%,,
CC1CN(c2nc3c(Br)c(Br)c(Br)c4c3n2CCC4)CCN1 (stereo not drawn) [Example 3P],88%,22%,8%,5%,0%,16%,9.3 µM,1.4 µM
CC1CCCN1c1nc2c(Br)c(Br)c(Br)c3c2n1CCC3 (stereo not drawn) [Example 3R],100%,4%,0%,0%,4%,36%,,

# More lines, now with the values ahead:
inhibition at 1 µM (CDK8/CyclinC),inhibition at 1 µM (CDK9/CyclinT),inhibition at 1 µM (CDK1/CyclinB),inhibition at 1 µM (CDK2/CyclinE),inhibition at 1 µM (CDK5/p25),inhibition at 1 µM (CDK7/CyclinH/MAT1),IC50 (HCT116 cells),IC50 (SW480 cells),SMILES
52%,33%,0%,0%,0%,0%,1.2 µM,1.9 µM,"NCCNc1nc2c(Br)c(Br)c(Br)c3c2n1CCC3 [Example 1A, N-(7,8,9-tribromo-5,6-dihydro-4H-imidazo[4,5,1-ij]quinolin-2-yl)ethane-1,2-diamine hydrochloride]"
70%,7%,7%,1%,,,1.5 µM,,Cc1c(Br)c2c3c(nc(N4CCNCC4)n3CCC2)c1Br [Example 1AX]
100%,39%,32%,11%,4%,0%,1.3 µM,0.7 µM,Brc1c(Br)c2c3c(nc(N4CCNCC4)n3CCC2)c1I [Example 1Y]
100%,42%,,16%,,,0.6 µM,1.3 µM,C[C@@H]1CN(c2nc3c(I)c(Br)c(Br)c4c3n2CCC4)CCN1 [Example 3AD]
100%,39%,,40%,,,2.8 µM,4 µM,CN1CCN(c2nc3c(I)c(Br)c(Br)c4c3n2CCC4)CC1 [Example 3AM]
75%,17%,7%,2%,36%,0%,1.2 µM,2.3 µM,CN1CCN(c2nc3c(Br)c(Br)c(Br)c4c3n2CCC4)CC1 [Example 3M]
90%,21%,,17%,,,1.6 µM,1.3 µM,C[C@H]1CN(c2nc3c(I)c(Br)c(Br)c4c3n2CCC4)CCN1 [Example 3T]
92%,10%,,8%,,,1.5 µM,1.4 µM,CC1(C)CN(c2nc3c(I)c(Br)c(Br)c4c3n2CCC4)CCN1 [Example 3W]
92%,19%,0%,6%,0%,0%,1.3 µM,1.3 µM,"Cc1c(Br)c(Br)c2c3c1nc(C1CCN(C)CC1)n3CCC2 [Example 7A, 7,8-dibromo-9-methyl-2-(1-methylpiperidin-4-yl)-5,6-dihydro-4H-imidazo[4,5,1-ij]quinoline hydrochloride]"
88%,6%,,14%,,,2.6 µM,6.3 µM,CN1CCC(c2nc3c(Br)c(Br)c(Br)c4c3n2CCC4)CC1 [Example 7B]
83%,20%,0%,7%,0%,0%,1.1 µM,0.9 µM,Cc1c(Br)c(Br)c2c3c1nc(C1CCNCC1)n3CCC2 [Example 7C]
94%,39%,43%,22%,5%,15%,0.3 µM,0.6 µM,Brc1c(Br)c2c3c(nc(C4CCNCC4)n3CCC2)c1Br [Example 7E]
90%,20%,,0%,,,1.7 µM,4.1 µM,N#Cc1c(Br)c(Br)c2c3c1nc(N1CCNCC1)n3CCC2 [Example 8B]
